According to ChEMBL document CHEMBL4000204, “Improving potency and metabolic stability by introducing an alkenyl linker to pyridine-based histone deacetylase inhibitors for orally available RUNX3 modulators” (Eur J Med Chem, 2017):

Key:
in vitro [1] = conditions: mouse, liver microsomes
in vitro [2] = conditions: mouse, liver microsomes; remark: listed apart in the source

Row | SMILES | remaining at 0.5 h, 1000 µM (in vitro [1]) [%] | remaining at 0.5 h, 1000 µM (in vitro [2]) [%]
1 | O=C(/C=C/c1cccn(CCCc2ccc3ccccc3c2)c1=O)NO | 35.5 | 90.3
2 | O=C1CC2(CCCC2)CC(=O)N1CCCCN1CCN(c2ncccn2)CC1 [BUSPIRONE] | 0.29 | 99.1
